Source: US6372779B1, “Anti-inflammatory compounds” (Ortho Pharmaceutical Corporation, priority 1997, dated 2002)

Legend:
[1] = molecular target: T1, human glucocorticoid receptor (hGR) (Homo sapiens, UniProt P04150); assay: human glucocorticoid receptor binding assay (displacement of 3H triamcinolone acetonide); conditions: 1 μM
T1 construct: made in house; host or cells: Sf21 insect cells infected with baculovirus hGR, OR IM9 lymphoblast cell line (endogenous hGR)
T1 sequence (P04150 1-777): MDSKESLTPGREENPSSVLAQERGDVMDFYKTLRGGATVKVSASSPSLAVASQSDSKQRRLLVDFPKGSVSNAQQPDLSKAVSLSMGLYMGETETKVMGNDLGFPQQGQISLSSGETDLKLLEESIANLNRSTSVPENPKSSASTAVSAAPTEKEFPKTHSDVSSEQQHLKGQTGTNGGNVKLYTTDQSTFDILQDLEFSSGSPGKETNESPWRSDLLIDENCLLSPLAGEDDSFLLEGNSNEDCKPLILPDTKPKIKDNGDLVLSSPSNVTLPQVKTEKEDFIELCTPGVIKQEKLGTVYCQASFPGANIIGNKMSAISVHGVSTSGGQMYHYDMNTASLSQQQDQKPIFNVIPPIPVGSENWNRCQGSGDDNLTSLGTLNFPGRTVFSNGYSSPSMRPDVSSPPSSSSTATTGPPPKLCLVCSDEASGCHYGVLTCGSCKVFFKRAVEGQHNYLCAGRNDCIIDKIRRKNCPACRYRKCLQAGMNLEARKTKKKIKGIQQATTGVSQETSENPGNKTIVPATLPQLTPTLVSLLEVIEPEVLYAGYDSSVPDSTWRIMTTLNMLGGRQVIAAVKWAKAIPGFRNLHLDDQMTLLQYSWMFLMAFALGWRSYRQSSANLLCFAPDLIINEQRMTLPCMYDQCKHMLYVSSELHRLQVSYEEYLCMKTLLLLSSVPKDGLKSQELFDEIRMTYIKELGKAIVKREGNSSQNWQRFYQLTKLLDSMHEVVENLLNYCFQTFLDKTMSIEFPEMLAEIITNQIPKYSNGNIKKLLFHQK
Experimental: A human glucocorticoid receptor binding assay was carried out to determine the extent to which the compounds of this invention have the ability to bind to human glucocorticoid receptors. This binding ability may be indicative of the antiinflammatory activity of the compound. The test was carried out as follows.
Human glucocorticoid receptors were prepared from either insect cells (Sf21) infected with baculovirus hGR or from a lymphoblast cell line which expresses high levels of endogenous hGR (IM9). The receptor binding reactions, with or without test compounds, were set up in 96-well microtiter plates which were previously siliconized with SIGMACOTE™, a chlorinated organopolysiloxane in heptane. The binding components, 3(H) Triamcinolone acetonide (TAA), glycerol/molybdate-containing buffer and unlabeled compounds were added to the wells using a combination of BIOMEK laboratory automation system and repeat pipettes. After four hours of incubation, the samples were precipitated with polyethylene glycol and filtered through Whatman GFIF paper using a TOMTEK cell harvester. The filter mate with 96 samples were bound to a solid-phase scintillant and directly counted in a BETAPLATE counter. […] The activity of test compounds to displace 3(H) TAA binding to hGR is also expressed as percent inhibition at 1 μM.

[2] = system: human progesterone receptor (hPR); assay: human progesterone receptor binding assay (displacement of 3H R5020 promegestone)
Experimental: A human progesterone receptor binding assay was performed in order to determine selectivity of the compounds, as follows. Human progesterone receptors were prepared from either insect cells (SF21) infected with baculovirus hPR A, or from a breast cancer cell line, T47D, which expresses high levels of endogenous hPR. The receptor binding reactions, with or without test compounds, were set up in 96-well microtiter plates which were previously siliconized with SIGMACOTE. The binding components, 3(H) R5020 Promegestone, a high affinity ligand for the progesterone receptors, glycerollmolybdate-containing buffer and unlabeled compounds were added to the wells using a combination of BIOMEK laboratory automation system and repeat pipettes. After overnight incubation, the samples were precipitated with polyethylene glycol and filtered through Whatman GF/F paper using a TOMTEK cell harvester. The filter mate with 96 samples were bound to a solid-phase scintillant and directly counted in the BETAPLATE counter. Only those compounds that were active in the human glucocorticoid receptor assay set forth in Example 30 were used for progesterone receptor binding to determine cross-reactivity profiles, if any. The activity of test compounds to displace 3(H) R5020 binding to hPR is expressed as percent inhibition at the two concentrations, 10^−6 and 10^−5 Molar.

Row | Structure (SMILES) | hGR, value given as % (% inhibition) [1] [%] | hPR % inh 10 μM [2] [%]
1 | COc1ccccc1CC(=O)NCC(c1ccccc1)C(c1ccccc1)c1ccccc1 (stereo not drawn) [Compound 5] | 62 | 
2 | COc1ccccc1NC(=O)NCC(c1ccccc1)C(c1ccccc1)c1ccccc1 (stereo not drawn) [Compound 51] | 32 | 
3 | COc1ccccc1CC(=O)NCC(c1ccccc1)C1c2ccccc2-c2ccccc21 (stereo not drawn) [Compound 67] | 23 | 
4 | O=C(Cc1ccccc1Cl)NCC(c1ccccc1)C1c2ccccc2-c2ccccc21 (stereo not drawn) [Compound 68] | 46 | 
5 | O=C(Cc1ccccc1C(F)(F)F)NCC(c1ccccc1)C1c2ccccc2-c2ccccc21 (stereo not drawn) [Compound 69] | 15 | 
6 | Cc1ccc(C(=O)NCC(c2ccccc2)C2c3ccccc3-c3ccccc32)s1 (stereo not drawn) [Compound 72, N-(2-carbonyl-5-methylthiophene)-2-(9H-fluoreny-9-yl)-2-phenylethylamine] | 33 | 

Further lines, results first:

Row | hGR, value given as % (% inhibition) [1] [%] | hPR % inh 10 μM [2] [%] | Structure (SMILES)
7 | 53 |  | COc1ccccc1CCC(=O)NCC(c1ccccc1)C1c2ccccc2-c2ccccc21 (stereo not drawn) [Compound 70]
8 | 68 |  | CC(C)CC(=O)NCC1(c2ccccc2)CC1(c1ccccc1)c1ccccc1 (stereo not drawn) [Compound 85]
9 | 11 |  | O=C(NCC1(c2ccccc2)CC1(c1ccccc1)c1ccccc1)Nc1ccccc1F (stereo not drawn) [Compound 93]
10 | 13 |  | COc1ccccc1NC(=O)NCC1(c2ccccc2)CC1(c1ccccc1)c1ccccc1 (stereo not drawn) [Compound 94]
11 | 4 |  | O=C(NCc1ccccc1)NCC1(c2ccccc2)CC1(c1ccccc1)c1ccccc1 (stereo not drawn) [Compound 95]
12 |  | 57 | Cc1ccc(C(=O)NCC(c2ccc(I)cc2)C(c2ccccc2)c2ccccc2)s1 (stereo not drawn) [Compound 180]
13 |  | 41 | COc1ccccc1C(=O)NCC(c1ccc(I)cc1)C(c1ccccc1)c1ccccc1 (stereo not drawn) [Compound 181]
14 |  | 15 | COc1cccc(C(=O)NCC(c2ccc(I)cc2)C(c2ccccc2)c2ccccc2)c1 (stereo not drawn) [Compound 182]
15 |  | 42 | COc1cc(OC)cc(C(=O)NCC(c2ccc(I)cc2)C(c2ccccc2)c2ccccc2)c1 (stereo not drawn) [Compound 183]
